# Assay results from US20230000773A1, “NOVEL HEADGROUP LIPID COMPOUNDS AND COMPOSITIONS FOR INTRACELLULAR DELIVERY OF THERAPEUTIC AGENTS” (ModernaTX, Inc., priority 2019, published 2023).
# Legend:
# hEPO mRNA = assay: hEPO expression in CD1-mice after intravenous administration of nanoparticles; type: in vivo; conditions: 6 h after intravenous administration, mRNA dose 0.5 mg/kg, N:P 3.4, compound:DSPC:cholesterol:PEG 2 50:10:38:2
# Experimental: The expression of hEPO mRNA in CD1-mice was measured 6 h after intravenous administration of nanoparticles comprising a compound of the disclosure, DSPC, cholesterol, and PEG 2 in a ratio of 50:10:38:2. […] Each composition was dosed to 8 animals at an mRNA dose of 0.5 mg/kg.
# serum protein ApoE = assay: ApoE binding affinity of nanoparticles (bead binding, flow cytometry)
# Experimental: The ApoE binding affinity, i.e., the affinity of binding between nanoparticles comprising compounds of the disclosure and the serum protein ApoE, was determined by binding the nanoparticles to beads, then incubating them with known quantities of […]. The quantity of protein bound to the nanoparticle was then determined by flow cytometry.
# [1] = Encapsulation efficiency (% EE), ribogreen; type: physicochemical; conditions: nanoparticles, compound:DSPC:cholesterol:PEG 2 50:10:38:2 mol %
# Text: (§1) The efficiency of encapsulation of a therapeutic and/or prophylactic describes the amount of therapeutic and/or prophylactic that is encapsulated or otherwise associated with a lipid nanoparticle (e.g., an empty LNP or a loaded LNP) after preparation, relative to the initial amount provided. The encapsulation efficiency is desirably high (e.g., close to 100%). The encapsulation efficiency may be measured, for example, by comparing the amount of therapeutic and/or prophylactic in a solution containing the lipid nanoparticle (e.g., an empty LNP or a loaded LNP) before and after breaking up the lipid nanoparticle (e.g., an empty LNP or a loaded LNP) with one or more organic solvents or detergents. Fluorescence may be used to measure the amount of free therapeutic and/or prophylactic (e.g., RNA) in a solution.
# (§2) Nanoparticle compositions including a therapeutic and/or prophylactic can be optimized according to the selection of a compound according to Formula (I), (I-1), (A), (A-1), (A-1a), or (A-1b), the selection of additional lipids, the amount of each lipid in the lipid component, and the wt:wt ratio of the lipid component to the therapeutic and/or prophylactic. Nanoparticle compositions including DSPC as a phospholipid, cholesterol as a structural lipid, PEG 2 as a PEG lipid, and a compound according to Formula (I), (I-1), (A), (A-1), (A-1a), or (A-1b) were prepared. The ratios of the lipids were 50:10:38:2 mol % for the lipid according to Formula (I), (I-1), (A), (A-1), (A-1a), or (A-1b):DSPC:cholesterol:PEG 2. […]
# [2] = Encapsulation efficiency (% EE), ribostar; type: physicochemical; conditions: nanoparticles, compound:DSPC:cholesterol:PEG 2 50:10:38:2 mol %
# Text: as §1, with “solution. For the lipid nanoparticles (e.g., empty LNPs or loaded LNPs) described herein, the encapsulation efficiency of a therapeutic and/or prophylactic may be at least 50%, for example 50%, 55%, 60%, 65%, 70%, 75%, 80%, 85%, 90%, 91%, 92%, 93%, 94%, 95%, 96%, 97%, 98%, 99%, or 100%. In some embodiments, the encapsulation efficiency may be at least 80%. In certain embodiments, the encapsulation efficiency may be at least 90%. In some embodiments, the encapsulation efficiency of the therapeutic and/or prophylactic agent is between 80% and 100%.” for “solution.”
# Nanoparticle compositions including a therapeutic and/or prophylactic can be optimized according to the selection of a compound according to Formula (I), (I-1), (A), (A-1), (A-1a), or (A-1b), the selection of additional lipids, the amount of each lipid in the lipid component, and the wt:wt ratio of the lipid component to the therapeutic and/or prophylactic. Nanoparticle compositions including DSPC as a phospholipid, cholesterol as a structural lipid, PEG 2 as a PEG lipid, and a compound according to Formula (I), (I-1), (A), (A-1), (A-1a), or (A-1b) were prepared. The ratios of the lipids were 50:10:38:2 mol % for the lipid according to Formula (I), (I-1), (A), (A-1), (A-1a), or (A-1b):DSPC:cholesterol:PEG 2. Tables 2a, 2b, and 3-5 summarize the characteristics of the formulations.
# Table 4 summarizes the surface hydrophobicity of nanoparticles comprising compounds of the disclosure as determined by Generalized Polarization by Laurdan (GPL). Laurdan, a fluorescent aminonaphthalene ketone lipid, was post-inserted into the nanoparticle surface and the fluorescence spectrum of Laurdan was collected to determine the normalized Generalized Polarization (N-GP). Higher N-GP indicates a less polar surface.
# [3] = Apparent LNP pKa by 2-(p-toluidino)-6-napthalene sulfonic acid (TNS) assay; type: physicochemical; conditions: pH at half of maximum fluorescence
# [4] = Size and polydispersity index of nanoparticles comprising compounds of the disclosure; type: physicochemical; conditions: compound:DSPC:cholesterol:PEG 2 50:10:38:2 mol %
# Text: Lipid nanoparticles (e.g., empty LNPs or loaded LNPs) may be characterized by a variety of methods. For example, microscopy (e.g., transmission electron microscopy or scanning electron microscopy) may be used to examine the morphology and size distribution of a nanoparticle composition. Dynamic light scattering or potentiometry (e.g., potentiometric titrations) may be used to measure zeta potentials. Dynamic light scattering may also be utilized to determine particle sizes. Instruments such as the Zetasizer Nano ZS (Malvern Instruments Ltd, Malvern, Worcestershire, UK) may also be used to measure multiple characteristics of a nanoparticle composition, such as particle size, polydispersity index, and zeta potential.
# as §2
# [5] = Heparin-sepharose binding of nanoparticles
# [6] = Surface hydrophobicity by Generalized Polarization by Laurdan (GPL); type: physicochemical; conditions: normalized Generalized Polarization by Laurdan; higher N-GP = less polar surface
# Summary of the method: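 LNPs contained ionizable lipid:DSPC:cholesterol:PEG lipid at 50:10:38:2 mol %. Laurdan was post-inserted into the particle surface, and its fluorescence spectrum gave normalized generalized polarization (N-GP); higher N-GP means a less polar surface.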
# mRNA = mRNA integrity in nanoparticles by RP-IP HPLC (UV 260 nm); type: physicochemical
# Experimental: Integrity of mRNA comprised in nanoparticles of the disclosure, i.e., the percentages of intact mRNA, mRNA adducts, and mRNA hydrolysis products, […] (Reverse-Phase Ion-Pairing HPLC) using UV detection at 260 nm. Total purity and impurities are calculated as percent peak area.
# [7] = mRNA integrity after 2 weeks at 25° C., percent peak area
# [8] = mRNA integrity at t = 0, percent peak area
SMILES,Avg. [hEPO] mIU/mL (hEPO mRNA) [mIU/mL],"Median Fluorescence Intensity, PE (serum protein ApoE)",% EE (ribogreen) [1] [%],% EE (ribostar) [2] [%],LogIC50 (pKa) [3],PDI [4],Size (nm) [4] [nm],Relative % Area Bound by LNP [5] [%],Average N-GP [6],Adduct (mRNA; [7]) [%],Hydrolysis Product (mRNA; [7]) [%],Intact (mRNA; [7]) [%],Adduct (mRNA; [8]) [%],Hydrolysis Product (mRNA; [8]) [%],Intact (mRNA; [8]) [%]
"CCCCCCCCC(CC)OC(=O)CCCCCCCN(CCCCCCCC(=O)OC(CCCCCCCC)CCCCCCCC)CCCNc1n[s+]([O-])nc1NC (stereo not drawn) [Compound 1, Heptadecan-9-yl 8-((3-((4-(methylamino)-1-oxido-1,2,5-thiadiazol-3-yl)amino)propyl)(8-oxo-8-(undecan-3-yloxy)octyl)amino)octanoate]",6.38E+05,182846,97.5,61.4,6.94,0.131,67.6,0,–,–,–,–,–,–,–
"CCCCCCCCC(CC)OC(=O)CCCCCCCN(CCCCCCCC(=O)OC(CCCCCCCC)CCCCCCCC)CCCNC1=NC(=O)N(C)C1=O (stereo not drawn) [Compound 9, Heptadecan-9-yl 8-((3-((1-methyl-2,5-dioxo-2,5-dihydro-1H-imidazol-4-yl)amino)propyl)(8-oxo-8-(undecan-3-yloxy)octyl)amino)octanoate]",5.32E+05,56008,92.9,68.9,–,0.154,77.1,0,–,–,–,–,–,–,–
"CCCCCCCCC(CC)OC(=O)CCCCCCCN(CCCCCCCC(=O)OC(CCCCCCCC)CCCCCCCC)CCCNc1ncccc1NC (stereo not drawn) [Compound 34, Heptadecan-9-yl 8-((3-((3-(methylamino)pyridin-2-yl)amino)propyl)(8-oxo-8-(undecan-3-yloxy)octyl)amino)octanoate]",8.06E+05,3133,75.4,41.6,6.87,0.211,108.2,2.90,1.001,7.9,51.4,40.8,3.8,36.4,59.8
"CCCCCCCCC(CC)OC(=O)CCCCCCCN(CCCCCCCC(=O)OC(CCCCCCCC)CCCCCCCC)CCCNC(=O)C1(C)CC1 (stereo not drawn) [Compound 60, Heptadecan-9-yl 8-((3-(1-methylcyclopropane-1-carboxamido)propyl)(8-oxo-8-(undecan-3-yloxy)octyl)amino)octanoate]",7.34E+05,41093,41.5,20.5,6.69,0.192,90.8,5.65,1.055,8.5,77.2,14.3,6.0,51.8,42.2
"CCCCCCCCC(CC)OC(=O)CCCCCCCN(CCCCCCCC(=O)OC(CCCCCCCC)CCCCCCCC)CCCNS(=O)(=O)CC (stereo not drawn) [Compound 66, Heptadecan-9-yl 8-((3-(ethylsulfonamido)propyl)(8-oxo-8-(undecan-3-yloxy)octyl)amino)octanoate]",1.57E+06,112648,91.8,59.1,6.64,0.125,70.1,3.54,0.837,27.2,32.9,39.9,13.1,32.9,54.0
"CCCCCCCCC(CC)OC(=O)CCCCCCCN(CCCCCCCC(=O)OC(CCCCCCCC)CCCCCCCC)CCCNS(=O)(=O)C1CC1 (stereo not drawn) [Compound 67, Heptadecan-9-yl 8-((3-(cyclopropanesulfonamido)propyl)(8-oxo-8-(undecan-3-yloxy)octyl)amino)octanoate]",1.43E+06,146715,84.1,48.5,6.67,0.123,71.7,6.69,0.890,26.3,39.0,34.7,10.1,32.8,57.1
